From ChEMBL document CHEMBL3621118, “Virtual screening for novel Atg5Atg16 complex inhibitors for autophagy modulation” (2015)
Calls of active or inactive are those of the source. The calls are words filed in the database; no cut-off is given here.

Legend:
A2780 [1] = test: Inhibition of PBS-induced autophagy in human A2780 cells assessed as decrease in LC3-2 level at 50 to 100 uM preincubated for 1 hr followed by PBS induction measured after 3 hrs by Western blot analysis; type: functional, cell-based
A2780 [2] = test: Inhibition of PBS-induced autophagy in human A2780 cells assessed as decrease in depletion of p62 level at 50 to 100 uM preincubated for 1 hr followed by PBS induction measured after 3 hrs by Western blot analysis; type: functional, cell-based
MCF7 = test: Inhibition of chloroquine-induced autophagy in human MCF7 cells assessed as suppression of autophagosome formation at 25 uM after 5 hrs by MDC staining-based fluorescence microscopic analysis; type: functional, cell-based
A2780 [3] = test: Inhibition of PBS-induced autophagy in human A2780 cells assessed as decrease in LC3-2 level preincubated for 1 hr followed by PBS induction measured after 3 hrs by Western blot analysis; type: functional, cell-based
A2780 [4] = test: Inhibition of PBS-induced autophagy in human A2780 cells assessed as decrease in depletion of p62 level preincubated for 1 hr followed by PBS induction measured after 3 hrs by Western blot analysis; type: functional, cell-based
[5] = Cytotoxicity against human NCI60 cells assessed as cell growth at 10 uM after 24 hrs by SRB assay relative to control; type: functional; details: NCI60, 24 h, read-out: Activity

O=C(NCCCc1ccccc1)c1ccccc1
inhibition (A2780 [1]): inactive
inhibition (A2780 [2]): inactive

O=C(NCCCOc1ccccc1)c1cccc2ccccc12
inhibition (A2780 [1]): Active
inhibition (A2780 [2]): Active
inhibition (MCF7): Active

O=C(NCCCCc1ccccc1)c1ccccc1Br
inhibition (A2780 [1]): inactive
inhibition (A2780 [2]): inactive

O=C(NCCCCc1ccccc1)c1ccccc1F
inhibition (A2780 [1]): Active
inhibition (A2780 [2]): Active

O=C(CNC(=O)c1ccc(Cl)cc1Cl)OCC(=O)c1ccc(Br)cc1
inhibition (A2780 [1]): inactive
inhibition (A2780 [2]): inactive

O=C(NCCCCc1ccccc1)c1cccc(Br)c1
inhibition (A2780 [1]): inactive
inhibition (A2780 [2]): inactive

Cc1ccc(OCC(=O)Nc2ccc(N3CCN(C(=O)c4ccco4)CC3)cc2)cc1
inhibition (A2780 [1]): Active
inhibition (A2780 [2]): Active

O=C(NCCCCc1ccccc1)c1ccc(Cl)cc1Cl
inhibition (MCF7): Active
inhibition (A2780 [3]): Dose-dependent effect
inhibition (A2780 [4]): Dose-dependent effect

O=C(NCCCCc1ccccc1)c1ccc(Br)cc1
inhibition (A2780 [1]): inactive
inhibition (A2780 [2]): inactive

O=C(NC1CCN(Cc2ccccc2)CC1)c1ccc(Cl)cc1Cl
inhibition (A2780 [1]): inactive
inhibition (A2780 [2]): inactive

Cc1cccc(CS(=O)(=O)NCc2ccc(N3CCCC3)cc2)c1
inhibition (A2780 [1]): Active
growth at 10 µM [5]: 90.1%
inhibition (A2780 [2]): Active
inhibition (MCF7): Active

COc1ccc(NC(=O)C(=O)NCCN2CCN(C(=O)c3ccc(Cl)cc3Cl)CC2)cc1
inhibition (A2780 [1]): inactive
inhibition (A2780 [2]): inactive
